Laboratory results: ChEMBL document CHEMBL1201862, “PubChem BioAssay data set” (2004)
Activity calls are given as the source filed them.

Key:
Cytochrome P450 1A2 = target: T1, Cytochrome P450 1A2 (Homo sapiens, UniProt P05177);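 further: PubChem cytochrome P450 panel assay, CYP1A2 panel member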
T1 sequence (P05177 whole entry): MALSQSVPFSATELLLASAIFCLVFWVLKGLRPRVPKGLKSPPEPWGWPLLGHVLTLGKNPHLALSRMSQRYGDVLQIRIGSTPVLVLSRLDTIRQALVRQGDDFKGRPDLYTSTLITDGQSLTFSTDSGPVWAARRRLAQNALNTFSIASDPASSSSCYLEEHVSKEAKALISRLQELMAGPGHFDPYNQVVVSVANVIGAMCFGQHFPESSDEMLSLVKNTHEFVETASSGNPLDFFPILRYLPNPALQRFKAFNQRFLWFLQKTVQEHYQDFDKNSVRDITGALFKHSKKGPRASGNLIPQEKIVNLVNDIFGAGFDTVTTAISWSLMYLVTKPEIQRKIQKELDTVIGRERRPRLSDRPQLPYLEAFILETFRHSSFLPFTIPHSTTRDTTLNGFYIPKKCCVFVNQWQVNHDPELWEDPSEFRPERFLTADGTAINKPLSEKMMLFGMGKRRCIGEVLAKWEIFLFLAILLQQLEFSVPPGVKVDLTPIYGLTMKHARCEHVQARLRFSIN

Streptococcus = assay: GAS UMAA2166 growth inhibition – luminescence, BacTiterGlo, counter-screen for streptokinase expression inhibitor project, dose response (AID 1915); assay type: functional, organism-based;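 further: potency for reduction of bacterial viability or growth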
Streptokinase A = target: T2, Streptokinase A (Streptococcus pyogenes serotype M1, UniProt P10520); assay: viability-normalized secreted streptokinase activity reduction – plasminogen activation absorbance, OD405, dose response (AID 1914); assay type: functional, Streptococcus pyogenes M1 GAS;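 further: secreted streptokinase activity via plasminogen activation per viability signal from cell pellet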
T2 sequence (P10520 whole entry): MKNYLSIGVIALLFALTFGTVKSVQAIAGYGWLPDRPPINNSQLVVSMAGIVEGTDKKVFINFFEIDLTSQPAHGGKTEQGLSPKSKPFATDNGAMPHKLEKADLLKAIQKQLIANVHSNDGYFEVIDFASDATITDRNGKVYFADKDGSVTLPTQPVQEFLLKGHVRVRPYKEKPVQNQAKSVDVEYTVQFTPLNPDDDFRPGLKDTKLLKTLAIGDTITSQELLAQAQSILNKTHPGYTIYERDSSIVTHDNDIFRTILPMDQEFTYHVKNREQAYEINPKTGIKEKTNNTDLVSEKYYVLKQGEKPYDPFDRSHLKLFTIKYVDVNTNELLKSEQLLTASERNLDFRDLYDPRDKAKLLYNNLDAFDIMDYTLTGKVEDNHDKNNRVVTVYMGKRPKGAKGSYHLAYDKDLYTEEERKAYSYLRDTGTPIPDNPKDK

[1] = Luminescence Cell-Based Dose Retest to Confirm Inhibitors of Cancer Stem Cells. [Related pubchem assays (depositor defined):AID2717, AID2721]; assay type: functional; settings: Homo sapiens
[2] = test system: Streptococcus sp. 'group A'; assay: Streptococcus pyogenes SK(-)GAS viability under kanamycin – luminescence, BacTiterGlo, confirmation, counter-screen for streptokinase expression inhibitor project, dose response (AID 1900); assay type: functional, organism-based
INS1 = assay: INS-1E survival protection against cytokine death – cell-based, luminescence, retest, dose response (AID 449756); assay type: functional; settings: Rattus norvegicus;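 further: cell death triggered by IL-1 beta plus TNF-alpha plus IFN-gamma mixture; protective hits raise ATP signal compared with cytokine alone wells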
Cytochrome P450 2D6 = Cytochrome P450 2D6 (Homo sapiens, UniProt P10635);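 further: CYP2D6 member of a cytochrome P450 panel assay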
[3] = target: T3, Heat shock factor protein 1 (Mus musculus, UniProt P38532); assay: decrease of HSF1-responsive luciferase luminescence – cell-based, NIH3T3, dose retest, confirmation (AID 2382); assay type: functional;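 further: NIH3T3 fibroblasts with HSF1-driven luciferase reporter stressed by proteasome inhibitor MG132; luminescence from HSF1-driven luciferase expression after 8 hours of MG132 stress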
T3 sequence (P38532 whole entry): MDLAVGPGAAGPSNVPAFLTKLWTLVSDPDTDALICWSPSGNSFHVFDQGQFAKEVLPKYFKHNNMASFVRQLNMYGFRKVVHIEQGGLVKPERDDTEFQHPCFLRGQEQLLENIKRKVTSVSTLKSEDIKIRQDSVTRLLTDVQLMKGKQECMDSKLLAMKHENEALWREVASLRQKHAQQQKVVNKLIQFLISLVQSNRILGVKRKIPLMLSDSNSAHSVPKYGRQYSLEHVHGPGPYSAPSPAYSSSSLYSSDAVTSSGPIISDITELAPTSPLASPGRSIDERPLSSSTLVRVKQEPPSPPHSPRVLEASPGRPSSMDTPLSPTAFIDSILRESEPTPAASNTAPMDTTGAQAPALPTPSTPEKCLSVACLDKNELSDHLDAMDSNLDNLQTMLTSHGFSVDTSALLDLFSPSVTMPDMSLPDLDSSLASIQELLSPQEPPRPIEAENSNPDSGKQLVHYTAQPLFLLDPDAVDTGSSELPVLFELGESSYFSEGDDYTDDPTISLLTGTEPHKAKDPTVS

[4] = reduction of Shn3 3'UTR-driven luciferase in osteoblasts – cell-based, Clone20 osteoblasts, firefly luciferase, cherry-picked, dose response (AID 624132); assay type: functional;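 further: firefly luciferase luminescence from reporter carrying the Shn3 3'UTR in osteoblasts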
[5] = non-specific 3'UTR reporter inhibition in Clone20-Shn3RL – cell-based, Renilla luciferase, cherry-picked, counter-screen for Shn3 inhibitor project, dose response (AID 624133); assay type: functional
Cytochrome P450 2C19 = Cytochrome P450 2C19 (Homo sapiens, UniProt P33261); assay: Cytochrome panel assay with activity outcomes. Panel member name: p450-cyp2c19 Compounds with AC50 equal or less than 10 uM are considered active; assay type: functional; settings: read-out: AC50
Sequence of Cytochrome P450 2C19 (P33261 whole entry): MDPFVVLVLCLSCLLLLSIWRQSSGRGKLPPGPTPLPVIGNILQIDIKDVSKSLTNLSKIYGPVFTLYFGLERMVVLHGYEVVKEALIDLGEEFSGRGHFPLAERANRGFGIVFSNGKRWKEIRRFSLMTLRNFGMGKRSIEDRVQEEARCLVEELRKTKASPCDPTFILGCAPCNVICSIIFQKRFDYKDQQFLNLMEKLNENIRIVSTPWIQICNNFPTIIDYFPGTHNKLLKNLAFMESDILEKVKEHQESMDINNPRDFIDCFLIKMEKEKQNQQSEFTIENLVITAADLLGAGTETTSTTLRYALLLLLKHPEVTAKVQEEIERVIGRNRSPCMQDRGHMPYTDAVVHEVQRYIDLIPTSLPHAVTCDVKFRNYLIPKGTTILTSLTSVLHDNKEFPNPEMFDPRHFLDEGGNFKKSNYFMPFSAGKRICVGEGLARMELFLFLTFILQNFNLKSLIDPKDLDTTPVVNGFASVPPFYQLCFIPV

Sequence of Cytochrome P450 2D6 (P10635 whole entry): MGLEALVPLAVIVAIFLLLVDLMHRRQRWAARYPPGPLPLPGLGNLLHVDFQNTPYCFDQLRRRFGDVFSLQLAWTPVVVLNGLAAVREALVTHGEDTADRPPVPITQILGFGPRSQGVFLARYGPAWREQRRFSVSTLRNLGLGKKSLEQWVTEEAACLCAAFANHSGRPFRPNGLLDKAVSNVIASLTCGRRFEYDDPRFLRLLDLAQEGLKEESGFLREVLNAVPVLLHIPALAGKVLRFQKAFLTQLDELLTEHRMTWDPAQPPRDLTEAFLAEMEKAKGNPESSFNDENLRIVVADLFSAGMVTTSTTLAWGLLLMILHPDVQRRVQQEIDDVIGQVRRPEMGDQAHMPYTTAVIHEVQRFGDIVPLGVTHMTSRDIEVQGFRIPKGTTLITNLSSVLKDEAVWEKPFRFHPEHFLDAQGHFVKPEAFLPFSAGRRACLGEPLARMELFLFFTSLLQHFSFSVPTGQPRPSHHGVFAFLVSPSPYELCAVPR

Question: With `CCOC(=O)C1=C(COc2ccc(F)cc2Cl)NC(=O)NC1c1cc(C)ccc1C` (centres undefined) as the molecule, how does the AC50 (Cytochrome P450 1A2) read?
Answer: 17.8 µM (inconclusive)

Question: Which EC50 (Streptococcus) does the source give for `COc1ccccc1C(=O)NC(=S)Nc1ccc(NC(=O)c2ccco2)cc1` here?
Answer: 114 µM (inconclusive)

Question: And the EC50 (Streptokinase A)?
Answer: > 150 µM (not active)

Question: Which AC50 [1] does the source give for `COc1cccc(/C=C/C(=C2/C(=O)N(c3ccccc3)N=C2C)c2ccc(Br)cc2)c1OC` here?
Answer: > 195 µM (inactive)

Question: And the EC50 (Streptococcus)?
Answer: > 150 µM (not active)

Question: And the EC50 [2]?
Answer: > 150 µM (not active)

Question: And the EC50 (Streptokinase A)?
Answer: > 150 µM (not active)

Question: With `N[C@H](Cc1ccccc1)c1nnn[nH]1` as the molecule, how does the AC50 (Cytochrome P450 1A2) read?
Answer: 10 µM (inconclusive)

Question: With `O=C(C(Sc1ccccc1)c1ccccc1)N1CCN(c2ccccc2F)CC1` (centres undefined) as the molecule, how does the AC50 (INS1) read?
Answer: > 120 µM (inactive)

Question: What does the source list for `CCNc1ncc2nc(-c3ccc(F)cc3)c(=O)n(CCOC)c2n1`?
Answer: AC50 (Cytochrome P450 1A2): 2 µM (inconclusive); AC50 (Cytochrome P450 2D6): 3.98 µM (inconclusive)

Question: Which AC50 (INS1) does the source give for `COc1ccc(N(C)S(=O)(=O)c2cccc(C(=O)Nc3nc(C)c(C(C)=O)s3)c2)cc1` here?
Answer: 28.3 µM (active)

Question: For `COc1cccc(C(=O)Nc2ccc(NC(=O)C3CC=CCC3C(=O)O)cc2)c1` (centres undefined), which EC50 [3] is on record?
Answer: > 195 µM (not active)

Question: Which AC50 (INS1) does the source give for `COc1ccc2c(C(=O)NCc3ccc4c(c3)OCO4)c(-c3ccc(S(C)(=O)=O)cc3)sc2c1` here?
Answer: 6.76 µM (active)

Question: For `Cc1ccc(OP(=O)(Nc2cccc(C)c2)Oc2ccc(C)cc2)cc1`, which EC50 (Streptococcus) is on record?
Answer: 28.9 µM (active)

Question: And the EC50 [2]?
Answer: 13 µM (active)

Question: And the EC50 (Streptokinase A)?
Answer: 5.1 µM (active)

Question: With `CCOC(=O)c1c(C)nc2c(c1-c1ccc(OC)cc1)C(=O)CC(C)(C)C2` as the molecule, how does the AC50 (Cytochrome P450 1A2) read?
Answer: 14.1 µM (inconclusive)

Question: For `COc1ccc(CN2C(=O)c3ccccc3C(/C=N/OCc3ccc(Cl)cc3)C2=O)cc1` (centres undefined), which EC50 (Streptococcus) is on record?
Answer: 8.28 µM (active)

Question: And the EC50 [2]?
Answer: 1.44 µM (active)

Question: And the EC50 (Streptokinase A)?
Answer: > 150 µM (not active)

Question: Which results are given for `CC(C)(C)OC(=O)NCc1ccc(NC(=O)c2[nH]cnc2C(=O)NCCCCNC(=O)c2nc[nH]c2C(=O)Nc2ccc(CNC(=O)OC(C)(C)C)cc2)cc1`?
Answer: AC50 [1]: 1.73 µM (active); AC50 (INS1): 3.36 µM (active)

Question: What does the source list for `CCOC(=O)Cc1csc(SCC(=O)c2c(N)n(CC(C)C)c(=O)n(C)c2=O)n1`?
Answer: AC50 [4]: 2.35 µM (active); AC50 [5]: 8.62 µM (active)

Question: Which results are given for `O=C(c1ccco1)N1CCC2(CCN(Cc3ccncc3)CC2)CC1`?
Answer: AC50 (Cytochrome P450 1A2): 20 µM (inconclusive); AC50 (Cytochrome P450 2D6): 10 µM (inconclusive)

Question: Which EC50 [3] does the source give for `C/C(=N\O)C1CCCCC1` here?
Answer: > 195 µM (not active)

Question: For `COc1ccc(OC)c(/N=C2\SCCCN2C(=O)c2ccc(N3C(=O)CCC3=O)cc2)c1`, which EC50 [3] is on record?
Answer: > 195 µM (not active)

Question: Which EC50 [3] does the source give for `COc1cc(C(=O)N2CCSCC2)ccc1OC1CCN(C(C)=O)CC1` here?
Answer: > 195 µM (not active)

Question: With `CC1(C)NC(=O)N(CC(O)CN(c2ccccc2)S(=O)(=O)c2ccc([N+](=O)[O-])cc2)C1=O` (centres undefined) as the molecule, how does the EC50 [3] read?
Answer: > 195 µM (not active)

Question: Which AC50 (Cytochrome P450 1A2) does the source give for `COc1ccccc1-c1cncnc1NCc1cnc(C)cn1` here?
Answer: 20 µM (inconclusive)

Question: What about the AC50 (Cytochrome P450 2C19) of the same molecule?
Answer: 31.6 µM (inconclusive)

Question: What about the AC50 (Cytochrome P450 2D6) of the same molecule?
Answer: 39.8 µM (inconclusive)
